In patent US10266549B2, “ULK1 inhibitors and methods using same” (SALK INSTITUTE FOR BIOLOGICAL STUDIES, priority 2014, dated 2019):

These molecules were tested against ULK1 (Homo sapiens (Human), UniProt O75385) (assay: ULK1 inhibition assay (Table 1)). Settings: * = tested as a mixture of regioisomers.
Type: biochemical

Sequence of ULK1 (O75385 whole entry, species assumed): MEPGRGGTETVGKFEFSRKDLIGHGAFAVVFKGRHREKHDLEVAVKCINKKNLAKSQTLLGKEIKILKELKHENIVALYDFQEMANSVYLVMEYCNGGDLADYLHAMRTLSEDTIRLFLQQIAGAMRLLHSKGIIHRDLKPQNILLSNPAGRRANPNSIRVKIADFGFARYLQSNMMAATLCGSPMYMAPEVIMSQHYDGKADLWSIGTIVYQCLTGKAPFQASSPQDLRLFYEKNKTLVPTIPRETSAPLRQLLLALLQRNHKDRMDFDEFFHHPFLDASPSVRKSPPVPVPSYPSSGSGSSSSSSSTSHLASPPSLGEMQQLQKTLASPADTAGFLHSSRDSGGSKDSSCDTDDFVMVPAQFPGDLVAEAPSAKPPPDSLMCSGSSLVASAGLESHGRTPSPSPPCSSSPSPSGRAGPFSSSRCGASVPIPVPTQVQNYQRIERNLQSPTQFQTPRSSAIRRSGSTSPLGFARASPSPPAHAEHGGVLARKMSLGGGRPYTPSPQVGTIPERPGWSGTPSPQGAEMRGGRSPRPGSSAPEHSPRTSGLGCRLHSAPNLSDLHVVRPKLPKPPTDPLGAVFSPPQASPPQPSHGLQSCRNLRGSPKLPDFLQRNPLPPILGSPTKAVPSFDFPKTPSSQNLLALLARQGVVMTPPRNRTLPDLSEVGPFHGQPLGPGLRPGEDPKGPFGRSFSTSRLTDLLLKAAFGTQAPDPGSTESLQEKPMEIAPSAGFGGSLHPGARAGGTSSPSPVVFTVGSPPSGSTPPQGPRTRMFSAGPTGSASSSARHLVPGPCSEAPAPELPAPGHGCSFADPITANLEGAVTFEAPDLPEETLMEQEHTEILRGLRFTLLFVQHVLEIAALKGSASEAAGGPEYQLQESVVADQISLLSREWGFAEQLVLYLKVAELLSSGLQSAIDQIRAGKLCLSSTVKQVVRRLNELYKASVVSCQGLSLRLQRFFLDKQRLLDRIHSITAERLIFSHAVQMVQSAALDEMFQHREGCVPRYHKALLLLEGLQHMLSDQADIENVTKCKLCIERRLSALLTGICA

SMILES | IC50 [nM]
CNC(=O)c1ccccc1Nc1nc(Nc2ccc3c(c2)CCC(=O)N3)ncc1Cl [compound 19, 2-(5-Chloro-2-(2-oxo-1,2,3,4-tetrahydroquinolin-6-ylamino)pyrimidin-4-ylamino)-N-methylbenzamide] | < 200
COc1cc(N2CCOCC2)ccc1Nc1ncc(Br)c(Nc2ccccc2S(=O)(=O)N(C)C)n1 [compound 80, 2-(5-Bromo-2-(2-methoxy-4-morpholinophenylamino)pyrimidin-4-ylamino)-N—N-dimethylbenzenesulfonamide] | < 200
CNC(=O)c1ccccc1Nc1nc(Nc2cc(OC)c(OC)c(OC)c2)ncc1/C=C/c1ccccc1 [compound 71, (E)-N-Methyl-2-((5-styryl-2-((3,4,5-trimethoxyphenyl)amino)pyrimidin-4-yl)amino)benzamide] | < 200
CNC(=O)c1ccccc1Oc1nc(Nc2ccc(OC)cc2)ncc1C(F)(F)F [105a, 2-((2-((4-methoxyphenyl)amino)-5-(trifluoromethyl)pyrimidin-4-yl)oxy)-N-methylbenzamide] | > 2000
CNC(=O)c1ccccc1Nc1nc(Nc2ccc(N3CCOCC3)cc2OC)ncc1Br [compound 13, 2-(5-Bromo-2-(2-methoxy-4-morpholinophenylamino)pyrimidin-4-ylamino)-N-methylbenzamide] | 200 to 2000
Cc1cccc(Oc2nc(Nc3ccc4c(c3)CCC(=O)N4)ncc2C(F)(F)F)c1C [compound 83, 6-((4-(2,3-Dimethylphenoxy)-5-(trifluoromethyl)pyrimidin-2-yl)amino)-3,4-dihydroquinolin-2(1H)-one] | < 200
COc1ccc(Nc2nc(Nc3ccc(N4CCOCC4)cc3OC)ncc2C(F)(F)F)cn1 [compound 40, N^2-(2-methoxy-4-morpholinophenyl)-N^4-(6-methoxypyridin-3-yl)-5-(trifluoromethyl)pyrimidine-2,4-diamine] | > 2000
CNC(=O)c1ccccc1Nc1nc(Nc2cc(N3CCOCC3)cc(N3CCOCC3)c2)ncc1C(F)(F)F [compound 90, 2-(2-(3,5-dimorpholinophenylamino)-5-(trifluoromethyl)pyrimidin-4-ylamino)-N-methylbenzamide] | < 200
CNC(=O)c1ccccc1Nc1nc(Nc2ccc(N3CCOCC3)cc2OC)ncc1Cl [compound 12, 2-(5-Chloro-2-(2-methoxy-4-morpholinophenylamino)pyrimidin-4-ylamino)-N-methylbenzamide] | < 200
Oc1ncc(C(F)(F)F)c(Nc2ccccc2N2CCOCC2)n1 [118c, 4-((2-morpholinophenyl)amino)-5-(trifluoromethyl)pyrimidin-2-ol] | > 2000
FC(F)(F)c1cnc(Nc2ccc3c(c2)OCO3)nc1N1CCCC1 [164b, N-(benzo[d][1,3]dioxol-5-yl)-4-(pyrrolidin-1-yl)-5-(trifluoromethyl)pyrimidin-2-amine] | 200 to 2000
CNC(=O)c1ccccc1Oc1nc(Nc2ccc(C)c(Br)c2)ncc1C(F)(F)F [compound 102, 2-((2-((3-bromo-4-methylphenyl)amino)-5-(trifluoromethyl)pyrimidin-4-yl)oxy)-N-methylbenzamide] | > 2000
Clc1cnc(Nc2ccccc2)nc1Nc1ccccc1 [compound 114, 5-chloro-N^2,N^4-diphenylpyrimidine-2,4-diamine] | > 2000
CNc1ncc(C(F)(F)F)c(Nc2cnc3[nH]ccc3c2)n1 [182b, N2-methyl-N4-(1H-pyrrolo[2,3-b]pyridin-5-yl)-5-(trifluoromethyl)pyrimidine-2,4-diamine] | 200 to 2000
CNC(=O)c1ccccc1Oc1nc(Nc2cc(C)ccc2C)ncc1C(F)(F)F [compound 104, 2-((2-((2,5-dimethylphenyl)amino)-5-(trifluoromethyl)pyrimidin-4-yl)oxy)-N-methylbenzamide] | > 2000
CNC(=O)c1ccccc1Oc1nc(Nc2cc(OC)ccc2OC)ncc1C(F)(F)F [109a, 2-((2-((2,5-dimethoxyphenyl)amino)-5-(trifluoromethyl)pyrimidin-4-yl)oxy)-N-methylbenzamide] | > 2000
CNC(=O)c1ccccc1Nc1nc(Nc2ccc3[nH]ccc3c2)ncc1Cl [compound 18, 2-(2-(1H-indol-5-ylamino)-5-chloropyrimidin-4-ylamino)-N-methylbenzamide] | 200 to 2000
CNC(=O)c1ccccc1Oc1nc(Nc2cc(Br)ccc2C)ncc1C(F)(F)F [compound 100, 2((2-((5-bromo-2-methylphenyl)amino)-5-(trifluoromethyl)pyrimidin-4-yl)oxy)-N-methylbenzamide] | > 2000
COc1nc(Nc2cccc(C(F)(F)F)c2F)ncc1Br [compound 172, 5-bromo-N-(2-fluoro-3-(trifluoromethyl)phenyl)-4-methoxy pyrimidin-2-amine] | 200 to 2000
CNC(=O)c1ccccc1Nc1nc(Nc2cc(OC)c(OC)c(OC)c2)ncc1Cl [compound 15, 2-(5-Chloro-2-(3,4,5-trimethoxyphenylamino)pyrimidin-4-ylamino)-N-methylbenzamide] | < 200
CNC(=O)c1ccccc1Nc1nc(Nc2cc(OC)c(OC)c(OC)c2)ncc1C(F)(F)F [compound 36, N-Methyl-2-(5-(trifluoromethyl)-2-(3,4,5-trimethoxyphenylamino)pyrimidin-4-ylamino)benzamide] | > 2000

SMILES | IC50 [nM]
COc1ccc(C)c(Nc2ncc(Cl)c(Nc3nccc(C)n3)n2)c1 [compound 55, 5-Chloro-N^2-(5-methoxy-2-methylphenyl)-N^4-(4-methylpyrimidin-2-yl)pyrimidine-2,4-diamine] | > 2000
CNC(=O)c1ccccc1Oc1nc(Nc2cc(Br)ccc2C)ncc1Br [compound 112, 2-((5-bromo-2-((5-bromo-2-methylphenyl)amino)pyrimidin-4-yl)oxy)-N-methylbenzamide] | > 2000
COc1cc(Nc2ncc(C(F)(F)F)c(NCc3cccc(S(C)(=O)=O)c3)n2)cc(OC)c1OC [compound 31, N^4-(3-(Methylsulfonyl)benzyl)-5-(trifluoromethyl)-N^2-(3,4,5-trimethoxyphenyl)pyrimidine-2,4-diamine] | < 200
O=C1CCc2cc(Nc3ncc(C(F)(F)F)c(Nc4ccc5c(c4)CCC(=O)N5)n3)ccc2N1 [120c, 6,6′-((5-(trifluoromethyl)pyrimidine-2,4-diyl)bis(azanediyl))bis(3,4-dihydroquinolin-2(1H)-one)] | < 200
O=C1CCc2cc(Nc3ncc(C(F)(F)F)c(Nc4cccc(OCc5ccccc5)c4)n3)ccc2N1 [compound 121, 6-((4-((3-(benzyloxy)phenyl)amino)-5-(trifluoromethyl)pyrimidin-2-yl)amino)-3,4-dihydroquinolin-2(1H)-one] | 200 to 2000
COc1ccc(Nc2ncc(C(F)(F)F)c(O)n2)cc1 [105b, 2-((4-methoxyphenyl)amino)-5-(trifluoromethyl)pyrimidin-4-ol] | > 2000
CNC(=O)c1ccccc1Nc1nc(Nc2ccccc2Cl)ncc1Cl [compound 74, 2-(5-Chloro-2-(2-chlorophenylamino)pyrimidin-4-ylamino)-N-methylbenzamide] | 200 to 2000
CNC(=O)c1ccccc1Oc1nc(Nc2cc(OC)c(OC)c(OC)c2)ncc1C(F)(F)F [compound 92, N-Methyl-2-(5-(trifluoromethyl)-2-(3,4,5-trimethoxyphenylamino)pyrimidin-4-yloxy)benzamide] | < 200
COc1ccc(Nc2nc(Nc3ccc(N4CCOCC4)cc3OC)ncc2Br)cn1 [compound 28, 5-Bromo-N^2-(2-methoxy-4-morpholinophenyl)-N^4-(6-methoxypyridin-3-yl)pyrimidine-2,4-diamine] | 200 to 2000
COc1cccc(Nc2ncc(C(F)(F)F)c(O)n2)c1OC [115b, 2-((2,3-dimethoxyphenyl)amino)-5-(trifluoromethyl)pyrimidin-4-ol] | > 2000
COCCNc1ncc(C(F)(F)F)c(Nc2ccc3c(c2)CCC(=O)N3)n1 [151b, 6-((2-((2-methoxyethyl)amino)-5-(trifluoromethyl)pyrimidin-4-yl)amino)-3,4-dihydroquinolin-2(1H)-one] | < 200
O=C1CCc2cc(Nc3nc(OC4Cc5ccccc5C4)ncc3C(F)(F)F)ccc2N1 [180b, 6-((2-((2,3-dihydro-1H-inden-2-yl)oxy)-5-(trifluoromethyl)pyrimidin-4-yl)amino)-3,4-dihydroquinolin-2(1H)-one] | > 2000
CNC(=O)c1ccccc1Nc1nc(Nc2ccc3c(c2)OCCO3)ncc1Cl [compound 51, 2-(5-Chloro-2-(2,3-dihydrobenzo[b][1,4]dioxin-6-ylamino)pyrimidin-4-ylamino)-N-methylbenzamide] | < 200
COc1cc(Nc2ncc(C(F)(F)F)c(Nc3ccccn3)n2)cc(OC)c1OC [compound 38, N^4-(Pyridin-2-yl)-5-(trifluoromethyl)-N^2-(3,4,5-trimethoxyphenyl)pyrimidine-2,4-diamine] | 200 to 2000
Nc1nc(Nc2ccc3c(c2)OCO3)ncc1C(F)(F)F [165b, N^2-(benzo[d][1,3]dioxol-5-yl)-5-(trifluoromethyl)pyrimidine-2,4-diamine] | 200 to 2000
FC(F)(F)c1cnc(NC2CC2)nc1Nc1ccc2c(c1)OCCO2 [158b, N^2-cyclopropyl-N^4-(2,3-dihydrobenzo[b][1,4]dioxin-6-yl)-5-(trifluoromethyl)pyrimidine-2,4-diamine] | < 200
Fc1c(Nc2ncc(C(F)(F)F)c(Nc3ccc4c(c3)OCO4)n2)cccc1C(F)(F)F [141a, N^4-(benzo[d][1,3]dioxol-5-yl)-N^2-(2-fluoro-3-(trifluoromethyl)phenyl)-5-(trifluoromethyl)pyrimidine-2,4-diamine] | > 2000
CNC(=O)c1ccccc1Nc1nc(Nc2cc(OC)ccc2C)ncc1C(F)(F)F [compound 42, 2-(2-(5-Methoxy-2-methylphenylamino)-5-(trifluoromethyl)pyrimidin-4-ylamino)-N-methylbenzamide] | < 200
CNC(=O)c1ccccc1Nc1nc(Nc2cc3c(cc2C)OCO3)ncc1Cl [compound 57, 2-(5-Chloro-2-(6-methylbenzo[d][1,3]dioxol-5-ylamino)pyrimidin-4-ylamino)-N-methylbenzamide] | < 200
CNC(=O)c1ccccc1Oc1nc(Nc2ccccc2)ncc1C(F)(F)F [compound 99, N-methyl-2-((2-(phenylamino)-5-(trifluoromethyl)pyrimidin-4-yl)oxy)benzamide] | > 2000
